Several values for one entry are separate records, joined by “and”; a condition that tells them apart may be missing. Identical values can stand only once.
What was measured:
[1] = target: PRDM9 (Homo sapiens, UniProt Q9NQV7); assay: DSF thermal stabilisation, PRDM selectivity and titration; format: binding; settings: MRK-740 500 uM
Procedure: DSF measurements were performed as previously described[21] using a Light Cycler 480 II instrument from Roche Applied Science. […] Sypro Orange was purchased from Invitrogen as a 5000 × stock solution (concentration not specified by vendor) and was diluted 1:1000 to yield a 5 × working concentration. The temperature scan curves were fitted to a Boltzmann sigmoid function, and the Tm values were obtained from the midpoint of the transition.

[2] = target: T1, Adrenergic α2B (Homo sapiens, UniProt P18089); assay: Eurofins Panlabs panel, radioligand binding; settings: at 10 µM
T1 construct: NIMH Psychoactive Drug Screening Program, University of North Carolina at Chapel Hill

[3] = tested on: MCF7 cells; assay: Cell growth, IncuCyte ZOOM cell number; format: cell-based; settings: for Cell growth (Cell#): MCF7, 5 day treatment, technical replicates
Procedure: HEK293T or MCF7 cells were seeded on 96-well plates and the following day treated with compounds for indicated time. Cell number was determined with Vybrant® DyeCycle™ Green using IncuCyte™ ZOOM live cell imaging device (Essen Bioscence) and analyzed with IncuCyte™ ZOOM (2015A) software.
(top graphs) and MCF7 cells (bottom graph). Cells were treated with compounds for 2 and 4 days or 5 days in case of MCF7. Cell number was measured using IncuCyte™ ZOOM live cell imaging device. The results are MEAN +/- SEM, n=3 (technical replicates). Source data are provided as a Source Data file.
(1 picture or pasted object on this page, not shown here)

[4] = target: T1, Adrenergic α2B; assay: GPCR functional activity, GloSensor assay (agonist and antagonist mode); format: cell-based
Text: (§1) Supplementary Figure 5. Assessment of GPCR functional activity. […]
(§2) profiles were generously provided by the National Institute of Mental Health’s (NIMH)
(§3) Psychoactive Drug Screening Program, (Contract # HHSN-271-2013-00017-C) directed by B.L.
(§4) Roth, University of North Carolina at Chapel Hill and Project Officer J. Driscoll at NIMH,
(§5) Bethesda, Maryland, USA. Further details available at https://pdspdb.unc.edu/pdspWeb/.
(§6) MOR stands for “Opiate µ receptor”. […]
(§7) […] Source data are provided as a

[5] = target: T2, Opiate µ receptor (MOR) (Homo sapiens, UniProt P35372); assay: as above; format: cell-based; settings: for MOR Gi Agonist, raw signal: replicates 1-3; for MOR Tango Antagonist, raw signal: replicates 1-4
T2 construct: NIMH Psychoactive Drug Screening Program, University of North Carolina at Chapel Hill
Text: as §1, §2, §3, §4, §5, §6, §7

Sequence of PRDM9 (Q9NQV7 whole entry): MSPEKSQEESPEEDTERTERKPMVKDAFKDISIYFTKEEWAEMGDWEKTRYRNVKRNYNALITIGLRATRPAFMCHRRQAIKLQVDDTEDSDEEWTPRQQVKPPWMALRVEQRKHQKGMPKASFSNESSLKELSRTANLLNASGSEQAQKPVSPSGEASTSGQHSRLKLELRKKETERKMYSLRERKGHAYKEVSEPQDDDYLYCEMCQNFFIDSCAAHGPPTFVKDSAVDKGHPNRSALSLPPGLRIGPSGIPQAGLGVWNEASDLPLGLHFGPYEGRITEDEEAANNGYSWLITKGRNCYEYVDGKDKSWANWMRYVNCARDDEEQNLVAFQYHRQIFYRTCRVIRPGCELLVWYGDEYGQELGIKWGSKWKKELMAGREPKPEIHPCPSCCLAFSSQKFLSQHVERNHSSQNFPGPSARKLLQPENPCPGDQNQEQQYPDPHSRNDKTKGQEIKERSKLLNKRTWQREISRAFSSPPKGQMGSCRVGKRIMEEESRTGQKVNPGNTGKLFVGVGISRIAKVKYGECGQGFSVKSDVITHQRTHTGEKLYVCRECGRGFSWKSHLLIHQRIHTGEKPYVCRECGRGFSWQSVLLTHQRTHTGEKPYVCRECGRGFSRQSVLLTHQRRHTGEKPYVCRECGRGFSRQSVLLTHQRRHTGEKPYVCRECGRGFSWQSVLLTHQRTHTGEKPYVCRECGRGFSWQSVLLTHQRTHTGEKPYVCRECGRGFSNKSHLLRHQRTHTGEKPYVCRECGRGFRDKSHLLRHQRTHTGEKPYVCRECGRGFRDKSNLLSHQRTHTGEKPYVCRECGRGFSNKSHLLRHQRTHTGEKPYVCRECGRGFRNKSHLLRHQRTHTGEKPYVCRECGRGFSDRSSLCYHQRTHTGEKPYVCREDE
T2 sequence (P35372 whole entry): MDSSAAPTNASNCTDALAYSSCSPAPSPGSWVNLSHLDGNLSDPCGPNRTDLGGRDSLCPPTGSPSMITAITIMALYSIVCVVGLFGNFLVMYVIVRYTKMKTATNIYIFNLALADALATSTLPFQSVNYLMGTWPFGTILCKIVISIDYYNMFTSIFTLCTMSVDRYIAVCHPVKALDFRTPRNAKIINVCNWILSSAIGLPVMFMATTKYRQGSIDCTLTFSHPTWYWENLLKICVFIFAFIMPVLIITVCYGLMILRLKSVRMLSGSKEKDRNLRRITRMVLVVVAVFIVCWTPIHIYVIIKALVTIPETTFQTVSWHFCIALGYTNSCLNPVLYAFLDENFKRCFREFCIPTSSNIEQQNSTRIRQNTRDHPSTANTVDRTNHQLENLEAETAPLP
T1 sequence (P18089 whole entry): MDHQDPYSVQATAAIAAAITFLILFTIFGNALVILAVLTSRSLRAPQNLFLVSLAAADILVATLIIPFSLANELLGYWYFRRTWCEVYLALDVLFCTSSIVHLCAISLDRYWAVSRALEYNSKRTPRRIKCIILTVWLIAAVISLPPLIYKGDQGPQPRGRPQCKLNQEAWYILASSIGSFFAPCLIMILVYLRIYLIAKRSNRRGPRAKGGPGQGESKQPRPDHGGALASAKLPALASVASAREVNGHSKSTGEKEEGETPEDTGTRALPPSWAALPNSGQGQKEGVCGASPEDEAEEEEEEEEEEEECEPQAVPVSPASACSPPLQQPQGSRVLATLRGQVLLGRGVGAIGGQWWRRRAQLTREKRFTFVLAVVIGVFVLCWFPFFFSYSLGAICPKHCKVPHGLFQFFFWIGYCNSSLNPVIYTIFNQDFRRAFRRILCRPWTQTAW

COc1cc(OC)cc(-c2noc(N3CCN(C)C4(CCN(c5ccnc(C)c5)CC4)C3)n2)c1 [MRK-740]
∆Tm, Average (n=3) ([1]; in the absence of SAM): 1.354 ⁰C
∆Tm, replicates ([1]; in the absence of SAM): 1.288 ⁰C and 1.351 ⁰C and 1.422 ⁰C
∆Tm, Average (n=3) ([1]; in the presence of 2 mM of SAM): 5.9348 ⁰C
∆Tm, replicates ([1]; in the presence of 2 mM of SAM): 5.8495 ⁰C and 5.999 ⁰C and 5.956 ⁰C
Binding [2]: > 50%
MCF7 cell viability (in words) ([3]; 10 µM, 5-day proliferation assay): minimal impact on MCF7 cell viability
Cell growth (Cell#) ([3]; 0.3 µM): 106.53 % control and 74.2747 % control and 75.9554 % control
Cell growth (Cell#) ([3]; 1 µM): 111.892 % control and 99.8066 % control and 82.4385 % control
Cell growth (Cell#) ([3]; 3 µM): 103.969 % control and 69.7125 % control and 102.608 % control
Cell growth (Cell#) ([3]; 10 µM): 66.6711 % control and 77.6362 % control and 64.0299 % control
Cell growth (Cell#) ([3]; 20 µM): 36.7371 % control and 35.4566 % control and 42.0196 % control
Functional activity (in words) [4]: no functional activity
Functional activity (in words) ([5]; agonist and antagonist mode): some potential agonistic activity
MOR Gi Agonist, raw signal ([5]; log[MRK-740] -4.52): 523.998 and 475.715 and 479.854
MOR Tango Antagonist, raw signal ([5]; log[MRK-740] -4.52): 6964.63 and 7700.23 and 6817.3 and 8343.47
MOR Gi Agonist, raw signal ([5]; log[MRK-740] -5): 470.197 and 394.324 and 410.878
MOR Tango Antagonist, raw signal ([5]; log[MRK-740] -5): 5111.95 and 4601.78 and 6359.89 and 4362.1
MOR Gi Agonist, raw signal ([5]; log[MRK-740] -5.52): 427.432 and 384.668 and 477.095
MOR Tango Antagonist, raw signal ([5]; log[MRK-740] -5.52): 5940.98 and 5705.68 and 7225.22 and 4368.69
MOR Gi Agonist, raw signal ([5]; log[MRK-740] -6): 441.227 and 430.191 and 452.263
MOR Tango Antagonist, raw signal ([5]; log[MRK-740] -6): 5577.04 and 4612.78 and 4219.16 and 5663.9
MOR Gi Agonist, raw signal ([5]; log[MRK-740] -6.52): 489.51 and 460.54 and 466.058
MOR Tango Antagonist, raw signal ([5]; log[MRK-740] -6.52): 4965.72 and 6716.14 and 4770.01 and 6856.88
MOR Gi Agonist, raw signal ([5]; log[MRK-740] -7): 347.421 and 472.956 and 397.083
MOR Tango Antagonist, raw signal ([5]; log[MRK-740] -7): 4544.61 and 3827.75 and 5625.42 and 6334.6
MOR Gi Agonist, raw signal ([5]; log[MRK-740] -7.52): 452.263 and 417.776 and 391.565
MOR Tango Antagonist, raw signal ([5]; log[MRK-740] -7.52): 9293.5 and 6501.73 and 7215.33 and 6591.89
MOR Gi Agonist, raw signal ([5]; log[MRK-740] -8): 452.263 and 390.186 and 408.119
MOR Tango Antagonist, raw signal ([5]; log[MRK-740] -8): 5778.25 and 5276.87 and 5467.09 and 6480.84
MOR Gi Agonist, raw signal ([5]; log[MRK-740] -8.52): 394.631 and 390.374 and 448.545
MOR Tango Antagonist, raw signal ([5]; log[MRK-740] -8.52): 5605.48 and 3120.04 and 6717.48 and 4672.02
MOR Gi Agonist, raw signal ([5]; log[MRK-740] -9): 413.075 and 366.255 and 451.383
MOR Tango Antagonist, raw signal ([5]; log[MRK-740] -9): 3692.19 and 5665.93 and 3690.78 and 6270.43
MOR Gi Agonist, raw signal ([5]; log[MRK-740] -9.52): 424.425 and 437.195 and 438.613
MOR Tango Antagonist, raw signal ([5]; log[MRK-740] -9.52): 5109.22 and 7289.66 and 4705.76 and 4478.02
MOR Gi Agonist, raw signal ([5]; log[MRK-740] -10): 492.528 and 401.725 and 449.964
MOR Tango Antagonist, raw signal ([5]; log[MRK-740] -10): 3780.75 and 4352.9 and 3641.58 and 3605.03
MOR Gi Agonist, raw signal ([5]; log[MRK-740] -10.52): 408.819 and 508.135 and 464.152
MOR Tango Antagonist, raw signal ([5]; log[MRK-740] -10.52): 4105.49 and 4174.37 and 7219.37 and 6121.41
MOR Gi Agonist, raw signal ([5]; log[MRK-740] -11): 516.647 and 510.972 and 540.767
MOR Tango Antagonist, raw signal ([5]; log[MRK-740] -11): 4295.27 and 3517.87 and 4659.37 and 5872.58
MOR Gi Agonist, raw signal ([5]; log[MRK-740] -11.52): 627.314 and 488.271 and 566.306
MOR Tango Antagonist, raw signal ([5]; log[MRK-740] -11.52): 8307.51 and 6114.38 and 4948.96 and 5192.17
MOR Gi Agonist, raw signal ([5]; log[MRK-740] -12): 684.066 and 560.63 and 516.647
MOR Tango Antagonist, raw signal ([5]; log[MRK-740] -12): 4510.35 and 4657.96 and 5814.94 and 6055.34

Source: publication PMC6917776, “Discovery of a chemical probe for PRDM9” (Nature Communications, 2019)
